According to ChEMBL document CHEMBL1201862, “PubChem BioAssay data set” (2004):
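The compound was tested at five concentrations on cells cultured in 96-well plates, with a 48-hour exposure period. GI50 is the concentration that inhibits growth by half.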 Calls of active or inactive are those of the source. Cut-off read from the data, not from the text of the source: active = GI50 up to about 1.1 µM and inactive = higher. Numbered stars: 1 amine (or outer) side, 2 acyl side, 3 side chain; on linkers, the order of the positions; unused ones are H or OH. Square brackets hold non-standard residues; d marks the D form. Peptide text beside a SMILES is read from it. * marks the point of attachment. X30 = CC(=O)N(C)SCC(N[*:1])C(=O)[*:2]; Cbz = O=C(OCc1ccccc1)*; Bn = c1ccc(C*)cc1

What was measured:
Test in all cases: DTP human tumour cell line panel, 48 h
OVCAR-4 = test system: OVCAR-4
SNB-19 = test system: SNB-19
RPMI-8226 = test system: RPMI-8226
NCI/ADR-RES = test system: NCI/ADR-RES
KM12 = test system: KM12
U-251 = test system: U-251
MDA-N = test system: MDA-N
SK-MEL-28 = test system: SK-MEL-28
K562 = test system: K562
IGROV-1 = test system: IGROV-1
UACC-62 = test system: UACC-62
UO-31 = test system: UO-31
SK-MEL-5 = test system: SK-MEL-5
SF-268 = test system: SF-268
RXF 393 = test system: RXF 393
ACHN = test system: ACHN
DU-145 = test system: DU-145
SK-OV-3 = test system: SK-OV-3
TK-10 = test system: TK-10
NCI-H522 = test system: NCI-H522

Measured: GI50

CC(=O)N(C)SCC(NC(=O)C(Cc1ccccc1)NC(=O)OCc1ccccc1)C(=O)NC(Cc1ccccc1)C(=O)NC(Cc1c[nH]c2ccccc12)C(=O)NC(CCCCNC(=O)OCc1ccccc1)C(=O)NC(C(=O)NC(CSN(C)C(C)=O)C(=O)NC(C(N)=O)C(C)OCc1ccccc1)C(C)OCc1ccccc1 (stereo not given) (Cbz-F[X30]FWK(Cbz)T(Bn)[X30]T(Bn)-NH2; configuration not given here)
inactive: OVCAR-4 > 100 µM | SNB-19 > 100 µM | RPMI-8226 74.3 µM | NCI/ADR-RES > 100 µM | KM12 40.9 µM | U-251 70.5 µM | MDA-N > 100 µM | SK-MEL-28 > 100 µM | K562 > 100 µM | IGROV-1 > 100 µM | UACC-62 > 100 µM | UO-31 > 100 µM | SK-MEL-5 > 100 µM | SF-268 > 100 µM | RXF 393 > 100 µM | ACHN > 100 µM | DU-145 > 100 µM | SK-OV-3 1.63 µM | TK-10 > 100 µM

N#CC(C#N)=CNC(=S)Nc1ccc(S(=O)(=O)Nc2nccs2)cc1
inactive: OVCAR-4 > 100 µM | SNB-19 > 100 µM | NCI/ADR-RES > 100 µM | KM12 > 100 µM | U-251 > 100 µM | MDA-N > 100 µM | SK-MEL-28 > 100 µM | IGROV-1 > 100 µM | UACC-62 > 100 µM | UO-31 > 100 µM | SK-MEL-5 > 100 µM | SF-268 > 100 µM | RXF 393 > 100 µM | ACHN > 100 µM | DU-145 > 100 µM | SK-OV-3 > 100 µM | TK-10 > 100 µM

NN/C(=N\S(=O)(=O)c1cc(Cl)c(Oc2ccc([N+](=O)[O-])cc2Cl)c(Cl)c1)Nc1ccc(Cl)cc1
inactive: OVCAR-4 17.9 µM | SNB-19 23.8 µM | RPMI-8226 31.8 µM | NCI/ADR-RES 23.2 µM | KM12 18.8 µM | U-251 16.2 µM | MDA-N 17.8 µM | SK-MEL-28 21.5 µM | K562 27 µM | IGROV-1 20.2 µM | UACC-62 15.5 µM | UO-31 17.6 µM | SK-MEL-5 16 µM | SF-268 19.5 µM | RXF 393 13.2 µM | ACHN 23.7 µM | DU-145 19.2 µM | SK-OV-3 44.7 µM | TK-10 19.3 µM

CC1(C)OC[C@@H]([C@H](C=O)OCc2ccccc2)O1
inactive: OVCAR-4 > 100 µM | SNB-19 > 100 µM | RPMI-8226 > 100 µM | NCI/ADR-RES > 100 µM | KM12 > 100 µM | U-251 > 100 µM | MDA-N > 100 µM | SK-MEL-28 > 100 µM | K562 > 100 µM | IGROV-1 > 100 µM | UACC-62 > 100 µM | UO-31 > 100 µM | SK-MEL-5 > 100 µM | SF-268 > 100 µM | ACHN > 100 µM | DU-145 > 100 µM | SK-OV-3 > 100 µM | TK-10 > 100 µM

O=C(O)c1cccc(Nc2c(C(=O)O)cccc2[N+](=O)[O-])c1
inactive: OVCAR-4 > 100 µM | SNB-19 > 100 µM | RPMI-8226 > 100 µM | NCI/ADR-RES > 100 µM | KM12 57.4 µM | MDA-N > 100 µM | NCI-H522 > 100 µM | K562 > 100 µM | IGROV-1 > 100 µM | UACC-62 > 100 µM | UO-31 > 100 µM | SK-MEL-5 > 100 µM | ACHN > 100 µM | DU-145 > 100 µM | SK-OV-3 > 100 µM | TK-10 > 100 µM

N#Cc1c(Cl)cccc1Oc1ccc(S(=O)(=O)/N=C(\NN)Nc2ccc(Cl)cc2)cc1
inactive: OVCAR-4 26.4 µM | SNB-19 41.1 µM | RPMI-8226 32.5 µM | NCI/ADR-RES 32.9 µM | KM12 19.5 µM | U-251 32 µM | MDA-N 25.5 µM | SK-MEL-28 31.8 µM | K562 34.8 µM | IGROV-1 20.1 µM | UACC-62 19.1 µM | UO-31 25.5 µM | SK-MEL-5 17.1 µM | SF-268 22.8 µM | RXF 393 19.1 µM | ACHN 31.9 µM | DU-145 25.5 µM | SK-OV-3 32.3 µM | TK-10 26.9 µM

Cc1cc2c(c(C(=O)NCCC(=O)N[C@@H](C)C(=O)OCc3ccccc3)c1)Oc1c(cc(C)cc1C(=O)NCCC(=O)N[C@@H](C)C(=O)OCc1ccccc1)S2
inactive: OVCAR-4 > 100 µM | SNB-19 > 100 µM | RPMI-8226 > 100 µM | NCI/ADR-RES > 100 µM | KM12 > 100 µM | U-251 > 100 µM | MDA-N > 100 µM | K562 > 100 µM | IGROV-1 > 100 µM | UACC-62 > 100 µM | UO-31 > 100 µM | SK-MEL-5 > 100 µM | SF-268 > 100 µM | RXF 393 38.5 µM | ACHN > 100 µM | DU-145 > 100 µM | SK-OV-3 80 µM

CN(CC#N)C(=O)Cc1ccc([N+](=O)[O-])cc1
inactive: OVCAR-4 > 10 µM | SNB-19 > 10 µM | RPMI-8226 > 10 µM | NCI/ADR-RES > 10 µM | KM12 > 10 µM | U-251 > 10 µM | MDA-N > 10 µM | SK-MEL-28 > 10 µM | K562 > 10 µM | IGROV-1 > 10 µM | UACC-62 > 10 µM | UO-31 > 10 µM | SK-MEL-5 > 10 µM | SF-268 > 10 µM | RXF 393 > 10 µM | ACHN > 10 µM | DU-145 > 10 µM | SK-OV-3 > 10 µM | TK-10 > 10 µM

CN(C)c1ccc(C2SCC(=O)N2c2ccc(Oc3ccc(Cl)cc3)c(Cl)c2)cc1 (stereo not given)
inactive: OVCAR-4 22.9 µM | SNB-19 20.3 µM | RPMI-8226 15.2 µM | NCI/ADR-RES 22.3 µM | KM12 20.3 µM | U-251 20.5 µM | MDA-N 28.6 µM | NCI-H522 18.3 µM | SK-MEL-28 35 µM | IGROV-1 22.6 µM | UACC-62 19 µM | UO-31 11.6 µM | SK-MEL-5 19.1 µM | SF-268 13.8 µM | ACHN 29.7 µM | DU-145 16.7 µM | SK-OV-3 29 µM | TK-10 48.4 µM

COc1ccccc1/C=C1\S/C(=N/Nc2nc(C)c(C(C)=O)s2)NC1=O
inactive: OVCAR-4 > 100 µM | SNB-19 51.2 µM | RPMI-8226 30.4 µM | NCI/ADR-RES 43.8 µM | KM12 38 µM | U-251 33.7 µM | MDA-N 29.9 µM | SK-MEL-28 40.6 µM | K562 34 µM | UACC-62 36.4 µM | UO-31 37.2 µM | SK-MEL-5 19.7 µM | SF-268 22.8 µM | RXF 393 69 µM | ACHN 49.1 µM | DU-145 69.7 µM | SK-OV-3 74.1 µM | TK-10 40.6 µM
